pIC50: −log10 of the molar value.

In general, pIC50 refers to the negative decadic logarithm of the IC50, by convention in mol/L.

Assay [1] deals with RKOp27 colon adenocarcinoma cells arrested by expression of ectopic p27Klp1. Description: Alamar Blue cell viability assay, cell cycle specific mode of action, RKOp27 cells arrested by Ponasterone A-induced p27 expression. The format is cell-based. Conditions: Homo sapiens, cells arrested by p27 induced with 10 μM Ponasterone A, 72 hours incubation, 16000 cells per well, read-out: IC50 RKO p27 induced. As for the experimental part: To determine the cell cycle specific mode of action, subclones of RKO colon adenocarcinoma cells (RKOp27 or RKOp21 as described by Schmidt et al. in Oncogene 19, 2423-2429; 2000) are seeded into 96 well flat bottom plates at a density of 16000 cells per well in a volume of 50 μl per well in DMEM growth medium with 10% FCS containing 10 μM Ponasterone A. 24 hours after seeding the 50 μl each of the compound dilutions in DMEM medium are added into each well of the 96 Well plate. Each compound dilution is tested as quadruplicates. Wells containing untreated control cells are filled with 50 μl DMEM medium containing 1% DMSO. The cells are then incubated with the substances for 72 hours at 37° C. in a humidified atmosphere containing 5% carbon dioxide. To determine the viability of the cells, 10 μl of an Alamar Blue solution (Biosource) are added and the fluorescence was measured at an extinction of 544 nm and an emission of 590 nm. For the calculation of the cell viability the emission value from untreated cells is set as 100% viability and the emission rates of treated cells are set in relation to the values of untreated cells. Viabilities are expressed as % values. Viability is compared of proliferating cells grown in the absence of the inducer Ponasterone A, versus viability of cells arrested by the expression of ectopic p27Klp1 induced by Ponasterone A. The data of this experimental setting are summarized in table A (2nd column).
(In general: Resazurin is reduced to fluorescent resorufin, in cell work by metabolically active cells.)

Assay [2] concerns RKO (RKOp27) human colon adenocarcinoma cells. Description: Alamar Blue cell viability assay, anti-proliferative/cytotoxic activity, proliferating (uninduced) RKOp27 cells. The format is cell-based. Conditions: no Ponasterone A, 72 hours incubation, 4000 cells per well, read-out: IC50 RKO p27 uninduced. As for the experimental part:
The anti-proliferative/cytotoxic activity of the compounds described herein, can be tested on subclones of RKO (RKOp27) human colon adenocarcinoma cells (Schmidt et al., Oncogene 19, 2423-2429; 2000) using the Alamar Blue cell viability assay (described in O'Brien et al. Eur J Biochem 267, 5421-5426, 2000). The compounds are dissolved as 20 mM solutions in dimethylsulfoxide (DMSO) and subsequently diluted in semi-logarithmic steps. DMSO dilutions are further diluted 1:100 into Dulbecco's modified Eagle's medium (DMEM) containing 10% fetal calf serum to a final concentration twice as much as the final concentration in the test. RKO subclones are seeded into 96 well flat bottom plates at a density of 4000 cells per well in a volume of 50 μl per well. 24 hours after seeding the 50 μl each of the compound dilutions in DMEM medium are added into each well of the 96 Well plate. Each compound dilution is tested as quadruplicates. Wells containing untreated control cells are filled with 50 μl DMEM medium containing 1% DMSO. The cells are then incubated with the substances for 72 hours at 37° C. in a humified atmosphere containing 5% carbon dioxide. To determine the viability of the cells, 10 μl of an Alamar Blue solution (Biosource) are added and the fluorescence was measured at an extinction of 544 nm and an emission of 590 nm. For the calculation of the cell viability the emission value from untreated cells is set as 100% viability and the emission rates of treated cells were set in relation to the values of untreated cells. Viabilities are expressed as % values.
The corresponding IC50 values of the compounds for anti-proliferative/cytotoxic activity are determined from the concentration-effect curves.
Representative IC50 values for anti-proliferation/cytotoxicity determined in the aforementioned assay are described in the table A (1st column), in which the numbers of the compound correspond to the numbers of the examples.

`CCOC(=O)N1CCc2c(sc(NC(=O)c3cccnc3)c2C#N)C1` [Compound 1, N-(6-ethoxycarbonyl-3-cyano-4,5,6,7-tetrahydro-thieno[2,3-c]pyridin-2-yl)-nicotinyl Amide]: the pIC50 in assay [1] is < 4.00; in assay [2] it was 6.30.
The matching figures for `CCOC(=O)N1CCc2c(sc(NC(=O)c3c(C)noc3-c3ccccc3)c2C#N)C1` [Compound 5, 3-Cyano-2-{[1-(3-methyl-5-phenyl-isoxazol-4-yl)-methanoyl]-amino}-4,7-dihydro-5H-thieno [2,3-c]pyridine-6-carboxylic Acid Ethyl Ester]: < 4.00 and 5.70.
The matching figures for `CCOC(=O)N1CCc2c(sc(NC(=O)C3=Cc4ccccc4OC3)c2C#N)C1` [Compound 6, 2-[(1-2H-Chromen-3-yl-methanoyl)-amino]-3-cyano-4,7-dihydro-5H-thieno[2,3-c]pyridine-6-carboxylic Acid Ethyl Ester]: < 4.00 and 5.70.
The corresponding values for `CCOC(=O)N1CCc2c(sc(NC(=O)c3cccs3)c2C#N)C1` [Compound 7, 3-Cyano-2-[(1-thiophen-2-yl-methanoyl)-amino]-4,7-dihydro-5H-thieno[2,3-c]pyridine-6-carboxylic Acid Ethyl Ester] are < 4.00 and 5.70.
In the case of `CCOC(=O)N1CCc2c(sc(NC(=O)c3cc4ccccc4s3)c2C#N)C1` [Compound 8, 2-[(1-Benzo[b]thiophen-2-yl-methanoyl)-amino]-3-cyano-4,7-dihydro-5H-thieno[2,3-c]pyridine-6-carboxylic Acid Ethyl Ester], the pIC50 in assay [1] is < 4.00; in assay [2], 5.30.
The matching figures for `CCOC(=O)N1CCc2c(sc(NC(=O)c3ccc(C)s3)c2C#N)C1` [Compound 10, 3-Cyano-2-{[1-(5-methyl-thiophen-2-yl)-methanoyl]-amino}-4,7-dihydro-5H-thieno[2,3-c]pyridine-6-carboxylic Acid Ethyl Ester]: < 4.00 and 6.70.
The matching figures for `CCOC(=O)N1CCc2c(sc(NC(=O)c3ccc4c(c3)OCC4)c2C#N)C1` [Compound 12]: < 4.00 and ≥ 5.52.
The corresponding values for `CCCC(=O)N1CCc2c(sc(NC(=O)c3cccnc3)c2C#N)C1` [Compound 14, N-(6-Butanoyl-3-cyano-4,5,6,7-tetrahydro-thieno[2,3-c]pyridin-2-yl)-nicotinyl Amide] are < 4.00 and ≥ 5.52.
In the case of `CCSC(=O)N1CCc2c(sc(NC(=O)c3cccnc3)c2C#N)C1` [Compound 16, 3-Cyano-2-[(1-pyridin-3-yl-methanoyl)-amino]-4,7-dihydro-5H-thieno[2,3-c]pyridine-6-carbothioic Acid S-ethyl Ester], the pIC50 was < 4.00 in assay [1] and ≥ 5.52 in assay [2].
The matching figures for `Cc1ncsc1CCOC(=O)N1CCc2c(sc(NC(=O)c3cccnc3)c2C#N)C1` [Compound 17, 3-Cyano-2-[(1-Pyridin-3-yl-methanoyl)-amino]-4,7-dihydro-5H-thieno[2,3-c]pyridine-6-carboxylic Acid 2-(4-methyl-thiazol-5-yl)-ethyl Ester]: < 4.00 and ≥ 5.52.
